Source: patent publication US7238694B2, “Rifamycin imino derivatives effective against drug-resistant microbes” (Cumbre Pharmaceuticals, Inc., priority 2004, dated 2007)
≈ marks a conversion by molar mass, not a printed value.

Legend:
Type in all cases: cell-based
[1] = system: Staphylococcus aureus ATCC29213; assay: MIC, microbroth dilution (NCCLS); conditions: rifS strain, Cation-Adjusted Mueller-Hinton Broth, 37° C., read-out: MIC
[2] = system: Staphylococcus aureus ATCC29213 rpoB^H418Y; assay: microbe, parasite or virus in culture; conditions: Staphylococcus aureus, ATCC29213; rifR strain; Cation-Adjusted Mueller-Hinton Broth, 37° C.; read-out: MIC
[3] = system: Staphylococcus aureus MT1222 gyrA^A116E grlB^S80F; assay: microbe, parasite or virus in culture; conditions: cipR strain, Cation-Adjusted Mueller-Hinton Broth, 37° C., read-out: MIC
[4] = system: Staphylococcus epidermidis ATCC12228; assay: MIC, microbroth dilution (NCCLS); conditions: rifS strain, Cation-Adjusted Mueller-Hinton Broth, 37° C., read-out: MIC
[5] = system: Streptococcus pneumoniae ATCC6303; assay: MIC, microbroth dilution (NCCLS); conditions: rifS strain, THY Broth with 1 mg/mL catalase, 5% CO2, 37° C., read-out: MIC
[6] = system: Streptococcus pyogenes ATCC19615; assay: MIC, microbroth dilution (NCCLS); conditions: rifS strain, THY Broth, 37° C., read-out: MIC
[7] = system: Haemophilus influenzae ATCC10211; assay: MIC, microbroth dilution (NCCLS); conditions: rifS strain, BHI Broth with NAD and hematin, 37° C., read-out: MIC

Compound	MIC [1] [µg/mL]	MIC [2] [µg/mL]	MIC [3] [µg/mL]	MIC [4] [µg/mL]	MIC [5] [µg/mL]	MIC [6] [µg/mL]	MIC [7] [µg/mL]
COc1c(N2CCC(N(C)/N=C/c3c4c(O)c5c(O)c(C)c6c(c5c3O)C(=O)[C@@](C)(O/C=C/[C@H](OC)[C@@H](C)[C@@H](OC(C)=O)[C@H](C)[C@H](O)[C@H](C)[C@@H](O)[C@@H](C)/C=C/C=C(/C)C(=O)N4)O6)C2)c(F)cc2c(=O)c(C(=O)O)cn(C3CC3)c12 (mixture of isomers) [Example 22, (R/S)-3-[1-(3-Carboxy-1-cyclopropyl-6-fluoro-8-methoxy-4-oxo-1,4-dihydroquinolin-7-yl)-pyrrolidinyl-3-methylhydrazino-methylenyl]-rifamycin SV]	0.008 to 1 (≈ 0.00728 to 0.911 µM)	0.06 to 16 (≈ 0.0546 to 14.6 µM)	0.008 to 0.125 (≈ 0.00728 to 0.114 µM)	0.008 to 0.1 (≈ 0.00728 to 0.0911 µM)	0.008 to 0.06 (≈ 0.00728 to 0.0546 µM)	0.008 to 0.03 (≈ 0.00728 to 0.0273 µM)	0.125 to 4 (≈ 0.114 to 3.64 µM)
COc1c(N2CCN(/N=C/c3c4c(O)c5c(O)c(C)c6c(c5c3O)C(=O)[C@@](C)(O/C=C/[C@H](OC)[C@@H](C)[C@@H](OC(C)=O)[C@H](C)[C@H](O)[C@H](C)[C@@H](O)[C@@H](C)/C=C/C=C(/C)C(=O)N4)O6)C(C(=O)O)C2)c(F)cc2c(=O)c(C(=O)O)cn(C3CC3)c12 (mixture of isomers) [Example 23, (R/S)-3-[4-(3-Carboxy-1-cyclopropyl-6-fluoro-8-methoxy-4-oxo-1,4-dihydroquinolin-7-yl)-3-carboxy-piperazin-1-yl-aminomethylenyl]-rifamycin SV]	0.008 to 1 (≈ 0.00709 to 0.886 µM)	0.06 to 16 (≈ 0.0532 to 14.2 µM)	0.008 to 0.125 (≈ 0.00709 to 0.111 µM)	0.008 to 0.1 (≈ 0.00709 to 0.0886 µM)	0.008 to 0.06 (≈ 0.00709 to 0.0532 µM)	0.008 to 0.03 (≈ 0.00709 to 0.0266 µM)	0.125 to 4 (≈ 0.111 to 3.55 µM)
COc1c(N2CCCC(N/N=C/c3c4c(O)c5c(O)c(C)c6c(c5c3O)C(=O)[C@@](C)(O/C=C/[C@H](OC)[C@@H](C)[C@@H](OC(C)=O)[C@H](C)[C@H](O)[C@H](C)[C@@H](O)[C@@H](C)/C=C/C=C(/C)C(=O)N4)O6)C2)c(F)cc2c(=O)c(C(=O)O)cn(C3CC3)c12 (mixture of isomers) [Example 24, (R/S)-3-[1-(3-Carboxy-1-cyclopropyl-6-fluoro-8-methoxy-4-oxo-1,4-dihydroquinolin-7-yl)-piperidin-3-hydrazino-methylenyl]-rifamycin SV]	0.008 to 1 (≈ 0.00728 to 0.911 µM)	0.06 to 16 (≈ 0.0546 to 14.6 µM)	0.008 to 0.125 (≈ 0.00728 to 0.114 µM)	0.008 to 0.1 (≈ 0.00728 to 0.0911 µM)	0.008 to 0.06 (≈ 0.00728 to 0.0546 µM)	0.008 to 0.03 (≈ 0.00728 to 0.0273 µM)	0.125 to 4 (≈ 0.114 to 3.64 µM)
COc1c(N2CCC(NC3CCN(/N=C/c4c5c(O)c6c(O)c(C)c7c(c6c4O)C(=O)[C@@](C)(O/C=C/[C@H](OC)[C@@H](C)[C@@H](OC(C)=O)[C@H](C)[C@H](O)[C@H](C)[C@@H](O)[C@@H](C)/C=C/C=C(/C)C(=O)N5)O7)CC3)C2)c(F)cc2c(=O)c(C(=O)O)cn(C3CC3)c12 (mixture of isomers) [Example 26, (R/S)-3-{4-[1-(3-Carboxy-1-cyclopropyl-6-fluoro-8-methoxy-4-oxo-1,4-dihydroquinolin-7-yl)-pyrrolidin-3-ylamino]-piperidin-1-yl-aminomethylenyl}-rifamycin SV]	0.008 to 1 (≈ 0.00685 to 0.857 µM)	0.06 to 16 (≈ 0.0514 to 13.7 µM)	0.008 to 0.125 (≈ 0.00685 to 0.107 µM)	0.008 to 0.1 (≈ 0.00685 to 0.0857 µM)	0.008 to 0.06 (≈ 0.00685 to 0.0514 µM)	0.008 to 0.03 (≈ 0.00685 to 0.0257 µM)	0.125 to 4 (≈ 0.107 to 3.43 µM)
COc1c(N2CCN(C3CCN(/N=C/c4c5c(O)c6c(O)c(C)c7c(c6c4O)C(=O)[C@@](C)(O/C=C/[C@H](OC)[C@@H](C)[C@@H](OC(C)=O)[C@H](C)[C@H](O)[C@H](C)[C@@H](O)[C@@H](C)/C=C/C=C(/C)C(=O)N5)O7)C3)CC2)c(F)cc2c(=O)c(C(=O)O)cn(C3CC3)c12 (mixture of isomers) [Example 28, (R/S)-3-{3-[1-(3-carboxy-1-cyclopropyl-6-fluoro-8-methoxy-4-oxo-1,4-dihydroquinolin-7-yl)-piperazin-4-yl]-pyrrolidinyl-1-hydrazino-methylenyl}-rifamycin SV]	0.008 to 1 (≈ 0.00694 to 0.867 µM)	0.06 to 16 (≈ 0.052 to 13.9 µM)	0.008 to 0.125 (≈ 0.00694 to 0.108 µM)	0.008 to 0.1 (≈ 0.00694 to 0.0867 µM)	0.008 to 0.06 (≈ 0.00694 to 0.052 µM)	0.008 to 0.03 (≈ 0.00694 to 0.026 µM)	0.125 to 4 (≈ 0.108 to 3.47 µM)
COc1c(N2CCC(N(Cc3ccccn3)/N=C/c3c4c(O)c5c(O)c(C)c6c(c5c3O)C(=O)[C@@](C)(O/C=C/[C@H](OC)[C@@H](C)[C@@H](OC(C)=O)[C@H](C)[C@H](O)[C@H](C)[C@@H](O)[C@@H](C)/C=C/C=C(/C)C(=O)N4)O6)C2)c(F)cc2c(=O)c(C(=O)O)cn(C3CC3)c12 (mixture of isomers) [Example 30, (R/S)-3-[1-(3-carboxy-1-cyclopropyl-6-fluoro-8-methoxy-4-oxo-1,4-dihydroquinolin-7-yl)-pyrrolidinyl-3-(pyridin-2-ylmethyl)hydrazino-methylenyl]-rifamycin SV]	0.008 to 1 (≈ 0.00681 to 0.851 µM)	0.06 to 16 (≈ 0.0511 to 13.6 µM)	0.008 to 0.125 (≈ 0.00681 to 0.106 µM)	0.008 to 0.1 (≈ 0.00681 to 0.0851 µM)	0.008 to 0.06 (≈ 0.00681 to 0.0511 µM)	0.008 to 0.03 (≈ 0.00681 to 0.0255 µM)	0.125 to 4 (≈ 0.106 to 3.4 µM)
CO[C@H]1/C=C/O[C@@]2(C)Oc3c(C)c(O)c4c(O)c(c(/C=N/N5CCC(C(=O)NC6CCN(c7c(F)cc8c(=O)c(C(=O)O)cn(C9CC9)c8c7Cl)C6)CC5)c(O)c4c3C2=O)NC(=O)/C(C)=C\C=C\[C@H](C)[C@H](O)[C@@H](C)[C@@H](O)[C@@H](C)[C@H](OC(C)=O)[C@@H]1C (mixture of isomers) [Example 31, (R/S)-3-{4-[1-(3-Carboxy-8-chloro-1-cyclopropyl-6-fluoro-4-oxo-1,4-dihydroquinolin-7-yl)-pyrrolidin-3-ylcarbamoyl]-piperidin-1-yl-aminomethylenyl}-rifamycin SV]	0.008 to 1 (≈ 0.00667 to 0.834 µM)	0.06 to 16 (≈ 0.05 to 13.3 µM)	0.008 to 0.125 (≈ 0.00667 to 0.104 µM)	0.008 to 0.1 (≈ 0.00667 to 0.0834 µM)	0.008 to 0.06 (≈ 0.00667 to 0.05 µM)	0.008 to 0.03 (≈ 0.00667 to 0.025 µM)	0.125 to 4 (≈ 0.104 to 3.33 µM)
COc1c(N2CCC(N3CCN(/N=C/c4c5c(O)c6c(O)c(C)c7c(c6c4O)C(=O)[C@@](C)(O/C=C/[C@H](OC)[C@@H](C)[C@@H](OC(C)=O)[C@H](C)[C@H](O)[C@H](C)[C@@H](O)[C@@H](C)/C=C/C=C(/C)C(=O)N5)O7)CC3)C2)c(F)cc2c(=O)c(C(=O)O)cn(C3CC3)c12 (mixture of isomers) [Example 33, (R/S)-3-{4-[1-(3-Carboxy-1-cyclopropyl-6-fluoro-8-methoxyoxo-1,4-dihydroquinolin-7-yl)-pyrrolidin-3-yl]-piperazin-1-yl-aminomethylenyl}-rifamycin SV]	0.008 to 1 (≈ 0.00694 to 0.867 µM)	0.06 to 16 (≈ 0.052 to 13.9 µM)	0.008 to 0.125 (≈ 0.00694 to 0.108 µM)	0.008 to 0.1 (≈ 0.00694 to 0.0867 µM)	0.008 to 0.06 (≈ 0.00694 to 0.052 µM)	0.008 to 0.03 (≈ 0.00694 to 0.026 µM)	0.125 to 4 (≈ 0.108 to 3.47 µM)
CO[C@H]1/C=C/O[C@@]2(C)Oc3c(C)c(O)c4c(O)c(c(/C=N/N5CCN(C6CCN(c7nc8c(cc7F)c(=O)c(C(=O)O)cn8-c7ccc(F)cc7F)C6)CC5)c(O)c4c3C2=O)NC(=O)/C(C)=C\C=C\[C@H](C)[C@H](O)[C@@H](C)[C@@H](O)[C@@H](C)[C@H](OC(C)=O)[C@@H]1C (mixture of isomers) [Example 34]	0.008 to 1 (≈ 0.00669 to 0.836 µM)	0.06 to 16 (≈ 0.0502 to 13.4 µM)	0.008 to 0.125 (≈ 0.00669 to 0.104 µM)	0.008 to 0.1 (≈ 0.00669 to 0.0836 µM)	0.008 to 0.06 (≈ 0.00669 to 0.0502 µM)	0.008 to 0.03 (≈ 0.00669 to 0.0251 µM)	0.125 to 4 (≈ 0.104 to 3.34 µM)
CO[C@H]1/C=C/O[C@@]2(C)Oc3c(C)c(O)c4c(O)c(c(/C=N/N5CCN(C(=O)C6CCN(c7nc8c(cc7F)c(=O)c(C(=O)O)cn8-c7ccc(F)cc7F)C6)CC5)c(O)c4c3C2=O)NC(=O)/C(C)=C\C=C\[C@H](C)[C@H](O)[C@@H](C)[C@@H](O)[C@@H](C)[C@H](OC(C)=O)[C@@H]1C (mixture of isomers) [Example 36, (R/S)-3-{4-[1-(3-Carboxy-1-(2,4-difluoro-phenyl)-6-fluoro-4-oxo-1,4-dihydro-[1,8]naphthyridine-7-yl)-pyrrolidin-3-yl-carbonyl]-piperazin-1-yl-aminomethylenyl}-rifamycin SV]	0.008 to 1 (≈ 0.00653 to 0.817 µM)	0.06 to 16 (≈ 0.049 to 13.1 µM)	0.008 to 0.125 (≈ 0.00653 to 0.102 µM)	0.008 to 0.1 (≈ 0.00653 to 0.0817 µM)	0.008 to 0.06 (≈ 0.00653 to 0.049 µM)	0.008 to 0.03 (≈ 0.00653 to 0.0245 µM)	0.125 to 4 (≈ 0.102 to 3.27 µM)
COc1c(N2CCC(C3(N4CCN(/N=C/c5c6c(O)c7c(O)c(C)c8c(c7c5O)C(=O)[C@@](C)(O/C=C/[C@H](OC)[C@@H](C)[C@@H](OC(C)=O)[C@H](C)[C@H](O)[C@H](C)[C@@H](O)[C@@H](C)/C=C/C=C(/C)C(=O)N6)O8)CC4)CC3)C2)c(F)cc2c(=O)c(C(=O)O)cn(C3CC3)c12 (mixture of isomers) [Example 37, (R/S)-3-{4-[1-(3-Carboxy-1-cyclopropyl-6-fluoro-8-methoxy-4-oxo-1,4-dihydroquinoline-7-yl)-pyrrolidin-3-yl-cyclopropyl]-piperazin-1-yl-aminomethylenyl}-rifamycin SV]	0.008 to 1 (≈ 0.0067 to 0.838 µM)	0.06 to 16 (≈ 0.0503 to 13.4 µM)	0.008 to 0.125 (≈ 0.0067 to 0.105 µM)	0.008 to 0.1 (≈ 0.0067 to 0.0838 µM)	0.008 to 0.06 (≈ 0.0067 to 0.0503 µM)	0.008 to 0.03 (≈ 0.0067 to 0.0251 µM)	0.125 to 4 (≈ 0.105 to 3.35 µM)
